From PMC4769319, “Cohesin Releases DNA through Asymmetric ATPase-Driven Ring Opening” (Molecular Cell, 2016) come the findings set out here.

This assay deals with T1, Smc1/Smc3 heterodimer with Scc1-C (cohesin) (Saccharomyces cerevisiae, UniProt P32908+P47037, P32908:E1158Q, form not given).
T1 construct: N-terminal tags; Sf9 insect cells; fluorescently labelled for MST; with Sister chromatid cohesion protein 1
T1 sequence (P32908 1-1225 E1158Q): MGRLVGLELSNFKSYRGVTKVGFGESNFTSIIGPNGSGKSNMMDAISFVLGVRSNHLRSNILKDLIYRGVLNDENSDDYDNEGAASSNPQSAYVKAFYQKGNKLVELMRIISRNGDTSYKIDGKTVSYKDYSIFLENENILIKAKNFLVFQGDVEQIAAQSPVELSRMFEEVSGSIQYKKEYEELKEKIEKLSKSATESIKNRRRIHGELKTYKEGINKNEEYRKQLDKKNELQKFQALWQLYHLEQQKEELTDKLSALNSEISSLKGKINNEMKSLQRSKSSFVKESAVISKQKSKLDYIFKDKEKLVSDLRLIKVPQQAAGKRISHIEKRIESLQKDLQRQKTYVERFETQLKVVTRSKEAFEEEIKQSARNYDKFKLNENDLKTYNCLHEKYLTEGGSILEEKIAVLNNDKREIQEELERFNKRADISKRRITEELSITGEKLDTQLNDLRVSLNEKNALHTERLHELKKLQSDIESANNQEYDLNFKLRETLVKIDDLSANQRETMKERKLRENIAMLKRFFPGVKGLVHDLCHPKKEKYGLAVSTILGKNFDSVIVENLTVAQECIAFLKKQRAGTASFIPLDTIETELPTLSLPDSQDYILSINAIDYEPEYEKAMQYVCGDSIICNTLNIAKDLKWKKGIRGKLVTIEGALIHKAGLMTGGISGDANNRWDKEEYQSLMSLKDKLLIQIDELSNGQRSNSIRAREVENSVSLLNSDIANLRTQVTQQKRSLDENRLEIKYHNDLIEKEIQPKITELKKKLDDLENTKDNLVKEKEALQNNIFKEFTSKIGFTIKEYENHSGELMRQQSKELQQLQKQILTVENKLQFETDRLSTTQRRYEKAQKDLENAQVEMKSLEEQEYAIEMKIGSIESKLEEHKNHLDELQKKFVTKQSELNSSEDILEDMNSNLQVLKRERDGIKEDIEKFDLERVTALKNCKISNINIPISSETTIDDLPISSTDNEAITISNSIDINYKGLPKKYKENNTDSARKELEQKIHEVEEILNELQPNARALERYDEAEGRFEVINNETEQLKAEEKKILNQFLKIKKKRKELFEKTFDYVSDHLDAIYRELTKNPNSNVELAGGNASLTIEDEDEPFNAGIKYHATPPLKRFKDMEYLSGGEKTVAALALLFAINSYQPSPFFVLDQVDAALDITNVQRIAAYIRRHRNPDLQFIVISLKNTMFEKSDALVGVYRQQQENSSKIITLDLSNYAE
T1 sequence (P47037 1-1230): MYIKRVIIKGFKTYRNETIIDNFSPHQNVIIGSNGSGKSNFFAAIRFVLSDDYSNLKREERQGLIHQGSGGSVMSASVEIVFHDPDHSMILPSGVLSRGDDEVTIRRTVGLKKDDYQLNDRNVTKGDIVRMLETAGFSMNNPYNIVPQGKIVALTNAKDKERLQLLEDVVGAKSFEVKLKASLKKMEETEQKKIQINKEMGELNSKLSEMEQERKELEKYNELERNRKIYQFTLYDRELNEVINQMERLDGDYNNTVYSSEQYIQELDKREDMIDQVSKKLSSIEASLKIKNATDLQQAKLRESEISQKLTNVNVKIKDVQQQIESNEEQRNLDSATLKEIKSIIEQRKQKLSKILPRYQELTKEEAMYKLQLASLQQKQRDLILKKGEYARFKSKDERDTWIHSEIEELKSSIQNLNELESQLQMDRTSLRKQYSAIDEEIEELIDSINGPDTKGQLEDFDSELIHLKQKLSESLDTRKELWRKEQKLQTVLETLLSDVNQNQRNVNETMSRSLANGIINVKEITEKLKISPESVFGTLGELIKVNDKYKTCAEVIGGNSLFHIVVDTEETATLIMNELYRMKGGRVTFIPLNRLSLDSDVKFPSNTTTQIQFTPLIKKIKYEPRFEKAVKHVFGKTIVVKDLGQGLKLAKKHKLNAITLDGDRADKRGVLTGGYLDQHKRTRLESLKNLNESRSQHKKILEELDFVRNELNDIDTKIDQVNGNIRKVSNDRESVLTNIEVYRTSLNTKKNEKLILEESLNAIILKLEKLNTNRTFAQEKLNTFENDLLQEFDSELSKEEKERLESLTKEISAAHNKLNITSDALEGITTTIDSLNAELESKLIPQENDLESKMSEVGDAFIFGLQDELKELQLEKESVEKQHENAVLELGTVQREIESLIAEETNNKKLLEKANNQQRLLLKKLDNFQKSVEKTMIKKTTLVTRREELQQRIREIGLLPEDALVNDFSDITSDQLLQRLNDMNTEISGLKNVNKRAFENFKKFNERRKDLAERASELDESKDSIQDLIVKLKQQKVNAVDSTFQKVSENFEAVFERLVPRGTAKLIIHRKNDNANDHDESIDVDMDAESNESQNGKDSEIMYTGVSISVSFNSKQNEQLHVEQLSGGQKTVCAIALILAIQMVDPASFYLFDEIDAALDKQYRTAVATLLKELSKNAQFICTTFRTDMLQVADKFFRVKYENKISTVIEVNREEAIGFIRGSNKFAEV
T1 sequence (Q12158 1-566 partner): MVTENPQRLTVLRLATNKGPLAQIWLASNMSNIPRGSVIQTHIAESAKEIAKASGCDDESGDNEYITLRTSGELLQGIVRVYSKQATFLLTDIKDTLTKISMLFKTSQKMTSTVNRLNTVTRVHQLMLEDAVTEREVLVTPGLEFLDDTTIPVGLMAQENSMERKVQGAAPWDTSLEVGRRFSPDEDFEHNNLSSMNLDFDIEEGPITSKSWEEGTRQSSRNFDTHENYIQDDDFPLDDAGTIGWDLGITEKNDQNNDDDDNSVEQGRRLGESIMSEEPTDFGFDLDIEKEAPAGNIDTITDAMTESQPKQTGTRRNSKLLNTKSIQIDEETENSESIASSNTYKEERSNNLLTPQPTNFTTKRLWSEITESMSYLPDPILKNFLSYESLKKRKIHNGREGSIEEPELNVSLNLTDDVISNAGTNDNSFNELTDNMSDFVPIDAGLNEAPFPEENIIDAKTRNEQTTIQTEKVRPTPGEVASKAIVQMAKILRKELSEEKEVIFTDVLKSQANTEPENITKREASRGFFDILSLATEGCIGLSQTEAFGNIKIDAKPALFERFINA
Briefly: microscale thermophoresis. It is filed as binding. Particulars: fluorescently labelled protein; Smc1 co-purified with Scc1-C, plus Smc3; read-out: affinity. The text has this: microscale thermophoresis on Smc1/Smc3 heterodimer with Scc1-C (cohesin) | Smc1 L1129V, D1164E and E1158Q mutants all had wild-type-like affinity to both ATP and ADP | wild-type and mutant cohesin complexes appear to have similar affinities to ADP
(Microscale thermophoresis detects binding through changes in fluorescence in a small temperature gradient.)

Regarding `Nc1ncnc2c1ncn2[C@@H]1O[C@H](COP(=O)(O)OP(=O)(O)O)[C@@H](O)[C@H]1O` [ADP], the Kd is > 1000 µM.
In the case of `Nc1ncnc2c1ncn2[C@@H]1O[C@H](COP(=O)(O)OP(=O)(O)OP(=O)(O)O)[C@@H](O)[C@H]1O` [ATP] it was 567 ± 289 µM.
